± gives the expanded uncertainty stated by the source.
Settings: Liquid, Closed cell (Static) method

O=C=O [carbon dioxide]
Settings | vapor or sublimation pressure [kPa]
218.15 K | 552.5 ± 18
233.15 K | 1004.4 ± 18
243.15 K | 1428 ± 18
258.15 K | 2293.7 ± 18
273.15 K | 3484.6 ± 19
288.19 K | 5089.6 ± 19
302.94 K | 7171.2 ± 21
